Assay results reported in publication PMC11124362, “Metabolism, Disposition, Excretion, and Potential Transporter Inhibition of 7–16, an Improving 5-HT2A Receptor Antagonist and Inverse Agonist for Parkinson’s Disease” (Molecules, 2024).
pIC50: −log10 of the molar value.

Experiments:
CYP2C19 = test: Metabolic phenotype by rhCYP isozymes, CYP2C19; type: in vitro ADME, human; conditions: 7–16 1 µM
Method: Based on the result of metabolite identification, two metabolites were selected as targets for metabolic phenotyping analysis. Seven CYP isozymes (CYP1A2, CYP2B6, CYP2C8, CYP2C9, CYP2C19, CYP2D6, and CYP3A4) were investigated using the rhCYP isozymes method. In brief, 7–16 (1 µΜ) was incubated with each rhCYP isozyme ([…]) in 100 mM sodium phosphate buffer (pH 7.4) containing 3 mM magnesium chloride. After 10 min of preincubation at 37 °C, the reactions were initiated by adding NADPH (1 mM) and then incubated at 37 °C in a shaking water bath for 0, 5, 15, and 30 min. The specific substrates of each rhCYP isozyme were incubated as the above method to confirm the activity of the incubation system. The samples were prepared in triplicates. The reactions were terminated by adding three times the volume of ice-cold acetonitrile (600 µL) and stored at −20 °C until analysis. After pre-treatment, the samples were determined by the LC–MS/MS (Shimadzu Exion-Triple Quad 4500) method. The relative contribution rate of each isozyme to the metabolism of 7–16 was evaluated in HLMs using the following formula: Contributionx% = Vx × Abundancex (pmol/mg protein)/Σ(Vi × Abundancei). Vx (µL/min/pmol) is the production rate of metabolites for each rhCYP isozyme.

CYP1A2 = tested on: CYP1A2; design: method as in PMID 35279606; conditions: previous study; read-out: CYP1A2 inhibition IC50; cited from earlier work
[1] = Metabolite identification in mouse liver microsomes; type: in vitro ADME; conditions: 7–16 10 µM, liver microsomes 1 mg/mL, NADPH, 37 °C, 60 min
Method: In accordance with our previous methods, 7–16 (10 µM) was incubated with mouse, rat, dog, monkey, and human liver microsome proteins (1 mg/mL) in 100 mM sodium phosphate buffer (pH 7.4) containing 10 mM magnesium chloride and 2 mM NADPH at 37 °C for 60 min. All samples were prepared in duplicates. The reactions were terminated by adding three times the volume of ice-cold acetonitrile (600 µL) and stored at −20 °C until analysis. Control samples without NADPH and 0-time point samples were included. As a positive control, testosterone (10 µM), which was metabolized to produce the hydroxylation metabolite, was used as a substrate to confirm the activity of the incubation system.
After pre-treatments, the samples were analyzed by an Acquity UPLC system coupled with a diode array detector (Waters Corporation, Milford, MA, USA) and Q Exactive HRMS (Thermo Electron Corporation, Waltham, MA, USA) (UPLC–UV-Q Exactive HRMS). Samples were separated on an Agilent XDB C18 column (150 × 2.1 mm i.d. 3.5 μm, Agilent Corporation, Santa Clara, CA, USA) at 40 °C by gradient elution with water and acetonitrile containing 0.1% formic acid. The flow rate was 0.40 mL/min. The ultraviolet (UV) detection wavelength was 286 nm. Q Exactive HRMS were operated at positive ion mode (3.5 kV) using a heating electrospray ionization source. Mass calibration was required to be performed before conducting experiments so as to achieve the best mass accuracy and mass calibration should be performed every five days. The metabolites were detected by full MS/dd-MS^2 analysis from m/z 100 to m/z 1000. The resolution of the first-class scan and second-class scan was 70,000 and 17,500, respectively. Thermo Compound Discover software was used to identify expected and unknown metabolites, and we finally proposed the 7–16 metabolic pathways based on the deduced metabolites and relevant drug biotransformation knowledge.

OCT2 = molecular target: T1, OCT2 (Homo sapiens, UniProt O15244)
T1 sequence (O15244 1-555): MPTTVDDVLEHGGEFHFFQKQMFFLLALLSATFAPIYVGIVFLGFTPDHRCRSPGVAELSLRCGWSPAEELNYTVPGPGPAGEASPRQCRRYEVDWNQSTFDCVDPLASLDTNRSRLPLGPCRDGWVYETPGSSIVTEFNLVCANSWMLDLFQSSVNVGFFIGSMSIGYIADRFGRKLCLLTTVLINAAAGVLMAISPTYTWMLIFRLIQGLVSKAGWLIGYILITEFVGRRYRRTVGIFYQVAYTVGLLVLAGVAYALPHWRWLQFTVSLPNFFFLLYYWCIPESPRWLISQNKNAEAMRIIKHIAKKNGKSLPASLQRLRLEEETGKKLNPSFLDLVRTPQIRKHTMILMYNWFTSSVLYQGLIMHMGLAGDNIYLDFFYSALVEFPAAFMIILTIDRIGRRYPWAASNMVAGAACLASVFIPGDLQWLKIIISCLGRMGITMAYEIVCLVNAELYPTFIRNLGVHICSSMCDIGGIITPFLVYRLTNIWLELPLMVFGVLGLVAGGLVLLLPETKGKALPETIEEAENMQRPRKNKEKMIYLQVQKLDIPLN

[2] = Excretion and metabolite identification in urine and feces of intact rats; type: in vivo, Sprague-Dawley rats; conditions: intact rats, 0–168 h, oral 3 mg/100 µCi/kg
Method: In the urine and feces excretion experiment, six rats (3 females and 3 males) were administered a single oral dose of [^14C]7–16 at 3 mg/100 µCi/kg. Urine, feces and cage washing/cleaning solution samples were collected from 0 to 168 h following drug administration at the following time intervals: 0–8, 8–24 h (0–24 h for feces), 24–48, 48–72, 72–96, 96–120, 120–144, and 144–168 h. In the biliary excretion experiment, 8 rats using a bile duct cannula (BDC) (4 females and 4 males) were administered a single oral dose of [^14C]7–16 at 3 mg/100 µCi/kg. Bile, urine, feces, and cage washing solution were collected from before and 0–72 h after oral administration at the following time intervals: 0–4, 4–8 (urine 0–8), 8–24 (feces 0–24), 24–48, and 48–72 h. All samples were collected and refrigerated at −20 °C until determination of the radioactive concentrations by liquid scintillation counter (Perkin Elmer Corporation, Waltham, MA, USA). Urine, feces, and bile samples at each time period were mixed by equal percentages of either volume or weight. After the mixed samples were treated, the radio-profiles and metabolite identification in the bile, urine, and feces samples were carried out by LC-RAM and UPLC-Q Exactive HRMS, and the TRA% of each metabolite in plasma and the percentage of dose (dose%) of each compound in urine, feces, and bile samples were calculated.

Compound: CN1CCC(N(Cc2ccc(F)cn2)C(=O)NCc2ccc(OCC(F)(F)F)cc2)CC1 [7–16, 3-(4-(2,2,2-trifluoroethoxy)benzyl)-1-((5-fluoropyridin-2-yl)methyl)-1-(1-methylpiperidin-4-yl) urea]
- relative contribution of CYP2C19 to metabolism (CYP2C19): little or no contribution
- pIC50 (CYP1A2): 5.07
- Relative Abundance, UV Area% Mouse [1]: 91.3%
- pIC50 (OCT2): 4.14
- recovery of radioactivity in cage rinse/wash, percent of dose [2]: 4.06%
- recovery of radioactivity in feces, percent of dose [2]: 55.0%
- recovery of radioactivity in urine, percent of dose [2]: 39.9%
- total recovery of radioactivity, percent of administered dose ([2]; mean of both sexes): 98.9%
